Data: PMC2765170 (PLoS ONE, 2009)

Columns and labels:
[1] = target: CoaE (M. tuberculosis dephosphocoenzyme A kinase, Rv1631) (Mycobacterium tuberculosis, UniProt P9WPA3); test: biochemical; assay type: binding; conditions: read-out: Ka (M^-1*104) (converted)
[2] = system: Nc1ncnc2c1ncn2[C@H]1C[C@H](O)[C@@H](COP(=O)(O)OP(=O)(O)OP(=O)(O)O)O1; test: purified protein; conditions: alternate phosphate donor, co-substrate DCoA
[3] = system: CC(C)(COP(=O)(O)OP(=O)(O)OC[C@H]1O[C@@H](n2cnc3c(N)ncnc32)[C@H](O)[C@@H]1O)[C@@H](O)C(=O)NCCC(=O)NCCS; test: purified protein; conditions: co-substrate ATP, MgCl2, 25°C
[4] = system: Nc1ncnc2c1ncn2[C@@H]1O[C@H](COP(=O)(O)OP(=O)(O)OP(=O)(O)O)[C@@H](O)[C@H]1O; test: purified protein; conditions: co-substrate DCoA, MgCl2, 25°C

Sequence of CoaE (M. tuberculosis dephosphocoenzyme A kinase, Rv1631) (P9WPA3 whole entry): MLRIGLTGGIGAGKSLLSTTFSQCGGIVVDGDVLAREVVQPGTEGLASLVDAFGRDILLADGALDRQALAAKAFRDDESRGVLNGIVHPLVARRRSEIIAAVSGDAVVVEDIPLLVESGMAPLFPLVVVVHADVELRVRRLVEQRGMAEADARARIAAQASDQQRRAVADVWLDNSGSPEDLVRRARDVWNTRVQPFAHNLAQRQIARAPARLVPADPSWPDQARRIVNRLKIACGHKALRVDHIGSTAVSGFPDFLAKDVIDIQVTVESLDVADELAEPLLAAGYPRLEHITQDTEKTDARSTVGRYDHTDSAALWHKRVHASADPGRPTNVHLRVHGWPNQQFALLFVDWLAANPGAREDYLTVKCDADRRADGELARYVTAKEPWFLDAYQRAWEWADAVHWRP

| Molecule | Kd [1] | Km [2] | Km [3] | Km [4] |
| --- | --- | --- | --- | --- |
| Nc1ncnc2c1ncn2[C@@H]1O[C@H](COP(=O)(O)OP(=O)(O)O)[C@@H](O)[C@H]1O [ADP] | 49.3 µM | – | – | – |
| Nc1ccn([C@@H]2O[C@H](COP(=O)(O)OP(=O)(O)OP(=O)(O)O)[C@@H](O)[C@H]2O)c(=O)n1 [CTP] | 62.9 µM | – | – | – |
| Nc1ncnc2c1ncn2[C@H]1C[C@H](O)[C@@H](COP(=O)(O)OP(=O)(O)OP(=O)(O)O)O1 [dATP] | 57.5 µM | – | – | – |
| CoaE (M. tuberculosis dephosphocoenzyme A kinase, Rv1631) (Mycobacterium tuberculosis H37Rv) | – | 320 µM | 34.9 µM | 56.8 µM |
